In assay [1] the test system is phosphorylated TTP. Briefly: Phosphorylated TTP level in ERBB2 overexpressing SKBR3 cells treated with ERBB2 inhibitor. Format: cell-based. The settings on record: SKBR3 breast cancer cell line, FIG. 6B.
Assay [2] concerns phosphorylated TTP/ZFP36. Briefly: Western blotting of TTP/ZFP36 phosphorylation in cells treated with kinase inhibitor volasertib. Format: cell-based. As for the experimental part: The cells were lysed in a mixture of 0.5% NP40 buffer, protease inhibitor and phosphatase inhibitor. The calf intestinal alkaline phosphatase (CIP, Promega, Madison, WI, USA) was used to verify the phosphorylation status of TTP/ZFP36, 20 units were added to the cell lysate (per 250 ul). The cell lysates were loaded and subjected to electrophoresis on 4-12% NuPAGE Bis-Tris gel (Invitrogen, Foster City, CA, USA). Then, the proteins were transferred from the gel to nitrocellulose membranes (Hybond ECL; Amersham Biosciences, Piscataway, NJ) in the presence of NuGAGE 20× transfer buffer (Invitrogen, Foster City, CA, USA). After blocking, membranes were incubated with primary antibodies diluted in 5% bovine serum albumin (BSA) (Sigma-Aldrich, St Louis, MO) at 4° C. overnight. For TTP/ZFP36, a custom-made affinity purified TTP polyclonal antibody and against C-terminal end of TTP and was used previously. This antibody is specific to TTP/ZFP36, but not the ortholog: ZFP36L1 when using 0.5% NP40 buffer instead of Laemmli buffer. Other antibodies are: anti-PLK1 (dilution 1:1000, Cell signaling, Massachusetts, USA), anti-GAPDH (dilution 1:500, Abcam, MA, USA), anti-HA, dilution 1:5000, Roche, Upper Bavaria, Germany). Thereafter, the membranes were incubated with corresponding secondary antibodies (diluted in 5% BSA, 1:2000 dilution) (Santa Cruz Biotech, Santa Cruz, CA) for 1-3 hrs. Protein bands were detected using ECL Western blotting detection reagents (Amersham Biosciences, Amersham, UK) in Molecular Imager ChemiDoc machine (BioRad, Hercules, CA, USA).
An exemplary kinase inhibitor, namely volasertib, was tested for the effects on the level of phosphorylation of TTP. […] The maximum dosage tested was 300 nM, and the lowest tested dose was 10 nM and was still effective (FIG. 2A). […] There was no change in the mobility of ZFP36 as observed with CIP treatment, indicating a partial, rather than complete de-phosphorylation event (as with CIP).
(In general: In western blotting, separated proteins are transferred to a membrane and probed.)

Assay [3] relates to uPA. Kind of assay: Western blotting of uPA protein (TTP target) after volasertib. The format is cell-based. The settings on record: volasertib 330 nM time course, FIG. 2C. As for the experimental part:
The cells were lysed in a mixture of 0.5% NP40 buffer, protease inhibitor and phosphatase inhibitor. The calf intestinal alkaline phosphatase (CIP, Promega, Madison, WI, USA) was used to verify the phosphorylation status of TTP/ZFP36, 20 units were added to the cell lysate (per 250 ul). The cell lysates were loaded and subjected to electrophoresis on 4-12% NuPAGE Bis-Tris gel (Invitrogen, Foster City, CA, USA). Then, the proteins were transferred from the gel to nitrocellulose membranes (Hybond ECL; Amersham Biosciences, Piscataway, NJ) in the presence of NuGAGE 20× transfer buffer (Invitrogen, Foster City, CA, USA). After blocking, membranes were incubated with primary antibodies diluted in 5% bovine serum albumin (BSA) (Sigma-Aldrich, St Louis, MO) at 4° C. overnight. For TTP/ZFP36, a custom-made affinity purified TTP polyclonal antibody and against C-terminal end of TTP and was used previously. This antibody is specific to TTP/ZFP36, but not the ortholog: ZFP36L1 when using 0.5% NP40 buffer instead of Laemmli buffer. Other antibodies are: anti-PLK1 (dilution 1:1000, Cell signaling, Massachusetts, USA), anti-GAPDH (dilution 1:500, Abcam, MA, USA), anti-HA, dilution 1:5000, Roche, Upper Bavaria, Germany). […] Protein bands were detected using ECL Western blotting detection reagents (Amersham Biosciences, Amersham, UK) in Molecular Imager ChemiDoc machine (BioRad, Hercules, CA, USA). […]

Assay [4] deals with phosphorylated TTP/ZFP36. Briefly: Western blotting of phosphorylated TTP/ZFP36 in excised xenograft tumor tissues. The settings on record: 10 mg/kg in vivo treatment, Western blot, FIG. 4B. Set-up: species or system nude mice. How it is done: (§1) FIGS. 4A-4B show kinase inhibition in mice and reduction in TTP phosphorylation. • 4A) PLK1 inhibition and tumor size in mice; MDA-MB-231 xenografts were injected into the mammary fat pad of female nude mice; when tumors become palpable, mice were treated with either volasertib (10 mg/kg) or vehicle twice weekly. The tumor size was calculated as described in Methods. Data are Mean±SEM from a nine-mouse experiment as indicated. Two-way ANOVA was performed for overall effect with Sidak's multiple comparison test (*p<0.05, **** p<0.0001). 4B) The effect of volasertib on TTP/ZFP36 phosphorylation; WB of tumor tissues from each mouse as probed with anti-TTP/ZFP36 or GAPDH as the loading control.
The cells were lysed in a mixture of 0.5% NP40 buffer, protease inhibitor and phosphatase inhibitor. […] Protein bands were detected using ECL Western blotting detection reagents (Amersham Biosciences, Amersham, UK) in Molecular Imager ChemiDoc machine (BioRad, Hercules, CA, USA).
Nude mice were purchased from Jackson Laboratories (Bar Harbor, Maine, USA). […] Tumor growth was measured by caliper, and the volume was calculated by the formula (π/6×L×M2), where L and M refer to the large and small diameters of each tumor, respectively. Mice weight and tumor size were recorded weekly. […]

The test system of assay [5] is MDA-MB-231 xenografts. Kind of assay: MDA-MB-231 xenograft tumor growth in nude mice. The format is in vivo. How it is done:
as §1
Nude mice were purchased from Jackson Laboratories (Bar Harbor, Maine, USA). The mice were housed at the animal facility at King Faisal Specialist Hospital and Research Center (KFSHRC) and maintained in accordance with protocols approved by the institution Animal Care and Use Committee. […] Tumor growth was measured by caliper, and the volume was calculated by the formula (π/6×L×M2), where L and M refer to the large and small diameters of each tumor, respectively. Mice weight and tumor size were recorded weekly. […]

The mark [6] stands for this setting: dose response, 10 nM to 300 nM, Western blot, FIG. 2A.
The mark [7] stands for this setting: time course, volasertib 330 nM, FIG. 2B.

This is an account of results in patent US12295955B2, “TTP phosphorylation for the identification of personalized medicines” (KING FAISAL SPECIALIST HOSPITAL & RESEARCH CENTRE, priority 2019, dated 2025).

With `CS(=O)(=O)CCNCc1ccc(-c2ccc3ncnc(Nc4ccc(OCc5cccc(F)c5)c(Cl)c4)c3c2)o1` [lapatinib], in assay [1], the “levels of phosphorylated TTP” value was “reduce the levels of phosphorylated TTP”.

Take `CC[C@@H]1C(=O)N(C)c2cnc(Nc3ccc(C(=O)N[C@H]4CC[C@H](N5CCN(CC6CC6)CC5)CC4)cc3OC)nc2N1C(C)C` [volasertib]: the “lowest tested dose still effective on TTP / phosphorylated TTP abundance” value in assay [2] (FIG. 2A) was 10 nM. Besides, the “change in the mobility of ZFP36 (partial rather than complete de-phosphorylation)” value in assay [2] (compared with CIP treatment) is given as “no change”. Besides, in assay [2] (setting [6]), the “abundance of phosphorylated TTP” value was “reduced in a dose-dependent manner” and the “abundance of total TTP” value is listed as “reduced in a dose-dependent manner”. Besides, in assay [2] (setting [7]), the “time after treatment at which effect on phosphorylated TTP is first observed” value was 2 h and the “time after treatment of maximal effect on phosphorylated TTP” value came out at 8 h. Moreover, the “abundance of the uPA protein” value in assay [3] was “reduced”. In assay [4], the “phosphorylated TTP/ZFP36 levels in excised tumor tissues versus control” value is recorded as “markedly reduced”. Also, the “tumor growth versus control group” value in assay [5] (10 mg/kg intraperitoneal twice a week, female nude mice, FIG. 4A upper panel) was “slower growth rate and began to regress by the end of the experiment”. The “difference in tumor volume versus vehicle” value in assay [5] (10 mg/kg twice a week, after 4 weeks of treatment, FIG. 4A lower panel) is recorded as “statistically significant difference”.
